How the values were obtained:
[1] = Storage stability: chromatographic purity (HPLC) of crystalline Form II on storage; type: physicochemical; details: for Chromatographic Purity (1M storage at 25° C. ± 2° C./60% ± 5% RH) / Chromatographic Purity after 1M storage (at 25° C.±2° C./60%±5% RH) / Chromatographic Purity (1M storage at 40° C. ± 2° C./75% ± 5% RH) / Chromatographic Purity after 1M storage (at 40° C.±2° C./75%±5% RH): 1 month storage; for Chromatographic Purity (Initial): before storage
Source text: In an embodiment of the first aspect, the pure crystalline Form II of the L-malic acid salt of sunitinib has a purity of not less than 97.0% as measured by a chromatographic technique such as High-Performance Liquid Chromatography (HPLC).
Table 1 below compares the chromatographic purity of crystalline Form II of an L-malic acid salt of sunitinib prepared without using an anti-oxidant (as per Example 8), and pure crystalline Form II of an L-malic acid salt of sunitinib prepared using an anti-oxidant (as per Examples 1, 2, and 4), on storage at 25° C.±2° C. and 40° C.±2° C. at a relative humidity of 60%±5% and 75%±5%, respectively, for 1 month and above.

[2] = cited from earlier work

Row | Structure (SMILES) | Chromatographic Purity (1M storage at 25° C. ± 2° C./60% ± 5% RH) ([1]; 25° C.±2° C., 60%±5% RH) [% w/w] | Chromatographic Purity after 1M storage (at 25° C.±2° C./60%±5% RH) ([1]; 25° C.±2° C., 60%±5% RH) [%] | Chromatographic Purity (1M storage at 40° C. ± 2° C./75% ± 5% RH) ([1]; 40° C.±2° C., 75%±5% RH) [% w/w] | Chromatographic Purity after 1M storage (at 40° C.±2° C./75%±5% RH) ([1]; 40° C.±2° C., 75%±5% RH) [%] | Chromatographic Purity (Initial) [1] [% w/w] | Chromatographic Purity (Initial) ([1]; example text) [%] | Chromatographic Purity (1M storage at 25° C. ± 2° C./60% ± 5% RH) ([1]; 25° C. ± 2° C., 60% ± 5% RH, listed as Example 8) [% w/w] | Chromatographic Purity (1M storage at 40° C. ± 2° C./75% ± 5% RH) ([1]; 40° C. ± 2° C., 75% ± 5% RH, listed as Example 8) [% w/w] | Chromatographic Purity (Initial) ([1]; listed as Example 8) [% w/w] | hygroscopicity ([2]; disclosed in WO 2009/104021) | form conversion and moisture absorption on storage ([2]; disclosed in WO 2011/061613)
1 | CCN(CC)CCNC(=O)c1c(C)[nH]c(/C=C2\C(=O)Nc3ccc(F)cc32)c1C.O=C(O)C[C@H](O)C(=O)O [Example 1, butanedioic acid, hydroxy-, (2S)-, compound with N-[2-(diethylamino)ethyl]-5-[(Z)-(5-fluoro-1,2-dihydro-2-oxo-3H-indol-3-ylidine)methyl]-2,4-dimethyl-1H-pyrrole-3-carboxamide (1:1)] | 98.4 | 98.4 | 97.0 | 97.0 | 99.1 | 99.10 | – | – | – | – | –
2 | CCN(CC)CCNC(=O)c1c(C)[nH]c(/C=C2\C(=O)Nc3ccc(F)cc32)c1C.O=C(O)C[C@H](O)C(=O)O [Example 2, butanedioic acid, hydroxy-, (2S)-, compound with N-[2-(diethylamino)ethyl]-5-[(Z)-(5-fluoro-1,2-dihydro-2-oxo-3H-indol-3-ylidine)methyl]-2,4-dimethyl-1H-pyrrole-3-carboxamide (1:1)] | 98.7 | 98.7 | 97.3 | 97.3 | 99.7 | 99.70 | – | – | – | – | –
3 | CCN(CC)CCNC(=O)c1c(C)[nH]c(/C=C2\C(=O)Nc3ccc(F)cc32)c1C.O=C(O)C[C@H](O)C(=O)O [Example 4, butanedioic acid, hydroxy-, (2S)-, compound with N-[2-(diethylamino)ethyl]-5-[(Z)-(5-fluoro-1,2-dihydro-2-oxo-3H-indol-3-ylidine)methyl]-2,4-dimethyl-1H-pyrrole-3-carboxamide (1:1)] | 99.7 | 99.70 | 99.3 | 99.3 | 99.7 | 99.70 | – | – | – | – | –
4 | CCN(CC)CCNC(=O)c1c(C)[nH]c(/C=C2\C(=O)Nc3ccc(F)cc32)c1C.O=C(O)C[C@H](O)C(=O)O [Example 7, butanedioic acid, hydroxy-, (2S)-, compound with N-[2-(diethylamino)ethyl]-5-[(Z)-(5-fluoro-1,2-dihydro-2-oxo-3H-indol-3-ylidine)methyl]-2,4-dimethyl-1H-pyrrole-3-carboxamide (1:1)] | – | 87.4 | – | 87.8 | – | 99.50 | 87.4 | 87.8 | 99.5 | – | –
5 | CCN(CC)CCNC(=O)c1c(C)[nH]c(/C=C2\C(=O)Nc3ccc(F)cc32)c1C.O=C(O)C[C@H](O)C(=O)O [Form II of sunitinib L-malate] | – | – | – | – | – | – | – | – | – | hygroscopic | –
6 | CCN(CC)CCNC(=O)c1c(C)[nH]c(/C=C2\C(=O)Nc3ccc(F)cc32)c1C.O=C(O)C[C@H](O)C(=O)O [stable crystalline Form II] | – | – | – | – | – | – | – | – | – | – | does not convert to any other form or absorb moisture on storage

From patent publication US9604968B2, “Pure crystalline Form II of L-malic acid salt of sunitinib and processes for its preparation” (RANBAXY LABORATORIES LIMITED, priority 2013, dated 2017)
